Measured values as given in patent publication US6541463B1, “Inhibitors of type 5 and type 3 17β-hydroxysteroid dehydrogenase and methods for their use” (Endorecherche, Inc., priority 1998, dated 2003).
Where two headings read alike, the source gives them in different places.

Target: T1, androgen receptor (Rattus norvegicus, UniProt P15207)
T1 construct: from tissue; host or cells: ventral prostate cytosol of gonadectomized male Sprague-Dawley rats
T1 sequence (P15207 1-902): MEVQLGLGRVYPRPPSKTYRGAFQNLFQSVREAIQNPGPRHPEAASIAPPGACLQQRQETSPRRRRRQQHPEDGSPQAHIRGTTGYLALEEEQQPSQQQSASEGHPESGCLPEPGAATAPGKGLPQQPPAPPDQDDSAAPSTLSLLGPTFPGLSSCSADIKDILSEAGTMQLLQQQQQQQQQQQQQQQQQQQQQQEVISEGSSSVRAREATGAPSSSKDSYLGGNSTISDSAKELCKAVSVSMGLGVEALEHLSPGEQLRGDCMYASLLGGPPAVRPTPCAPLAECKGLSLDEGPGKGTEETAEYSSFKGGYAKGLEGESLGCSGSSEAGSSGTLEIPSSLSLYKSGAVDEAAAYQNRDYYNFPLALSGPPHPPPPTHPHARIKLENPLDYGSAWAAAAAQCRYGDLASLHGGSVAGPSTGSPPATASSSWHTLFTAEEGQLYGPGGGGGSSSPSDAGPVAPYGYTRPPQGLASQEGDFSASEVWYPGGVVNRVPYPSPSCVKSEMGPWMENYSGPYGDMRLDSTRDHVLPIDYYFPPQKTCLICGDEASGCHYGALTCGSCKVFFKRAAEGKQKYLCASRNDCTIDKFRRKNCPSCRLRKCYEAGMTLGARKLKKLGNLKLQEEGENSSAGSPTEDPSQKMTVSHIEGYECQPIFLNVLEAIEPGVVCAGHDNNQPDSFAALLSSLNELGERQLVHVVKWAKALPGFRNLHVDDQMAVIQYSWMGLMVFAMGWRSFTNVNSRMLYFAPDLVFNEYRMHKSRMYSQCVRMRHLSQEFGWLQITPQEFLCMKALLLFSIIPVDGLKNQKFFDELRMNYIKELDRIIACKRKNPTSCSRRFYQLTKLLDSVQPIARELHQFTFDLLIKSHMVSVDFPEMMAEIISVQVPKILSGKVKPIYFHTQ
Test: Androgen receptor (AR) assay: inhibition of [3H]R1881 binding, prostate cytosol
Description: The manner in which the percentage of inhibition is determined is described in “Other Tests; D-Androgen Receptor (AR) Assays”. Lower numbers are desirable.
Male Sprague-Dawley rats (Crl: CD(SD)Br) weighing 200-300 g were obtained from Charles-River Inc. (St-Constant, Québec, Canada). The rats were gonadectomized under general anesthesia (Isoflurane) and killed by cervical dislocation 24 hours later. The ventral prostates were rapidly removed, dissected free from adhering tissue and frozen on dry-ice. Prostates were kept at −80° C. until assay.
All subsequent steps were performed at 0-4° C. Prostates were homogenized in 5 vol (wt/vol) of buffer A (25 mM Tris-HCl, 1.5 mM EDTA disodium salt, 10 mM α-monothioglycerol, 10% glycerol, and 10 mM sodium molybdate, pH 7.4), using a Polytron PT-10 homogenizer (Brinkman Instruments, Canada) at a setting of 5 for three periods of 10 sec, with intervals of 10 sec for cooling. The homogenate was then centrifuged at 105,000×g for 60 min in a Beckman L5-65 ultracentrifuge (Fullerton, Calif.).
Androgen binding was measured using the hydroxylapatite assay (HAP). In brief, the radioactive steroid [^3H]R1881 solubilized in ethanol was diluted into buffer A. Aliquots of prostate cytosol preparation (0.1 ml) were then incubated with 8 nM [^3H]R1881 (0.1 ml, ˜200,000 cpm) in the presence or absence of the indicated concentrations of unlabeled compounds (0.1 ml, prepared in buffer A containing 10% ethanol) for 16-18 h at 0-4° C. […] Unbound steroids were separated by incubation for 40 min at 0-4° C. with 0.3 ml HAP prepared in buffer P (50 mM, Tris-HCl, 10 mM KH2PO4, pH 7.4) as follows: 10 g HAP were washed with buffer P until the supernatant reached a pH of 7.4 and then following centrifugation and decantation of the supernatant, 37.5 ml of buffer P were added. After incubation with HAP and 10 minutes of centrifugation at 1,000×g, the pellet was washed 3 times with 1 ml buffer P. Thereafter, the radioactivity was extracted from the pellet by incubation at room temperature for 60 minutes with 1 ml EtOH. After centrifugation, the supernatant was decanted into a scintillation vial and the pellet was extracted again with ethanol.

[1] = read-out: % Inhibition Androgen Receptor E^−6
[2] = read-out: % Inhibition Androgen Receptor E^−8

| Compound | inhibition at 1 µM (Table 4′, E^−6) [%] | inhibition at 0.01 µM (Table 4′, E^−8) [%] | other results |
| --- | --- | --- | --- |
| COCCOc1ccc2c(c1)C(=O)CC1C2CCC2(C)C1CCC21CCC(C)(C)C(=O)O1 (stereo not drawn) [EM-1408-CS] | 0 | 0 |  |
| CC1(C)CCC2(CCC3C4CCc5cc(O)c([N+](=O)[O-])cc5C4CCC32C)OC1=O (stereo not drawn) [EM-1125-CS] | 1 | 2 |  |
| CCOc1ccc2c(c1)CCC1C2CC[C@@]2(C)C1CC[C@@]21CCC(C)(C)C(=O)O1 (stereo partly drawn) [EM-1369, 3-Ethoxy-1,3,5(10)-estratrien-17(R)-spiro-2′-(5′,5′-dimethyl-6′-oxo)-tetrahydropyran] | 1 | 0 |  |
| COCCOc1ccc2c(c1)CCC1C2CCC2(C)C1CCC21CCC(C)(C)C(=O)O1 [EM-1368-CS, 3-Methoxyethoxy-1,3,5(10)-estratrien-17(R)-spiro-2′-(5′,5′-dimethyl-6′-oxo)-tetrahydropyran] | 0 | 0 |  |
| COc1ccc(CC(=O)O[C@]2(C(C)=O)CCC3C4C=C(C)C5=CC(=O)C=C[C@]5(C)C4CC[C@@]32C)cc1 (stereo partly drawn) [EM-1291] |  |  | % Inhibition Androgen Receptor (E^−6): 0%; % Inhibition Androgen Receptor (E^−8): 0% |
| COCCOc1cc2c(cc1Cl)C1CCC3(C)C(CCC34CCC(C)(C)C(=O)O4)C1CC2 (stereo not drawn) [EM-1371-CS] | 1 | 0 |  |
| CC1CCC2(CCC3C4CCc5ccccc5C4CCC32C)OC1=O (stereo not drawn) [EM-1025] | 0 | 0 |  |
| COc1cc2c(cc1C)C1CCC3(C)C(CCC34CCC(C)(C)C(=O)O4)C1CC2 (stereo not drawn) [EM-1412-CS] | 0 | 0 |  |
| CC(=O)[C@@]1(OC(=O)CCCCF)CCC2C3C=C(C)C4=CC(=O)CC[C@]4(C)C3CC[C@@]21C (stereo partly drawn) [EM-1195-CS] |  |  | % Inhibition Androgen Receptor (E^−6): 62%; % Inhibition Androgen Receptor (E^−8): 1% |
| COCCOc1cc2c(cc1C(F)(F)F)[C@H]1CC[C@@]3(C)[C@@H](CC[C@@]34CCC(C)(C)C(=O)O4)[C@@H]1CC2 [EM-1438, 3-(2′-Methoxyethoxy)-2-trifluoromethyl-1,3,5(10)-estratrien-17(R)-spiro-2′-(5′,5′-dimethyl-6′-oxo)tetrahydropyran] |  |  | % Inhibition Androgen Receptor E^−6 (Table 4′, E^−6): 10%; % Inhibition Androgen Receptor E^−8 (Table 4′, E^−8): 0% |
| CC1(C)CC[C@@]2(CC[C@H]3[C@@H]4CCc5c(cc(Br)c(O)c5Br)[C@H]4CC[C@@]32C)OC1=O [EM-1382-CS] |  |  | % Inhibition Androgen Receptor E^−6 (Table 4′, E^−6): 0%; % Inhibition Androgen Receptor E^−8 (Table 4′, E^−8): 0% |
| CC1(C)CC[C@@]2(CCC3C4CCc5cc6oncc6cc5C4CC[C@@]32C)OC1=O (stereo partly drawn) [EM-1407-CS, 1,3,5(10)-estratrien-(2,3-oximino)-17(R)-spiro-2′-(5′,5′-dimethyl-6′-oxo)tetrahydropyran] | 0 | 0 |  |
| CC1(C)CCC2(CCC3C4CCc5cc(OS(C)(=O)=O)ccc5C4CCC32C)OC1=O (stereo not drawn) [EM-1365-CS] | 0 | 0 |  |
| COC(=O)CCCC(=O)O[C@]1(C(C)=O)CC[C@H]2[C@@H]3C=C(C)C4=CC(=O)CC[C@]4(C)[C@H]3CC[C@@]21C [EM-1007, 6-Methyl-4,6-pregnadien-17α-ol-3,20-dione 4′-Carbomethoxybutyrate] |  |  | % Inhibition Androgen Receptor (E^−6): 0%; % Inhibition Androgen Receptor (E^−8): 0% |
| COc1c(Br)cc2c(c1Br)CCC1C2CCC2(C)C1CCC21CCC(C)(C)C(=O)O1 (stereo not drawn) [EM-1385-CS] | 0 | 0 |  |
| C[C@]12CCC3c4ccc(O)cc4CCC3C1CC[C@@]21CCCC(=O)O1 (stereo partly drawn) [EM-919, 1,3,5(10)-estratrien-3-ol-17(R)-spiro-2′(6′-oxo)tetrahydropyran] |  |  | % Inhibition Androgen Receptor *E^−5 (Table 4′, starred values, E^−5): 6* %; % Inhibition Androgen Receptor *E^−7 (Table 4′, starred values, E^−7): 0* % |
| CCCC(=O)O[C@]1(C)C(=O)CCC2C3C=C(C)C4=CC(=O)CC[C@]4(C)C3CC[C@@]21C (stereo partly drawn) [EM-1078] |  |  | inhibition at 1 µM [1]: 83%; inhibition at 0.01 µM [2]: 7% |

| Compound | inhibition at 1 µM (Table 4′, E^−6) [%] | inhibition at 0.01 µM (Table 4′, E^−8) [%] | other results |
| --- | --- | --- | --- |
| CCCCN(C)C(=O)[C@@]1(OC(C)=O)CCC2C3C=C(C)C4=CC(=O)CC[C@]4(C)C3CC[C@@]21C (stereo partly drawn) [EM-1165] |  |  | % Inhibition Androgen Receptor (E^−6): 1%; % Inhibition Androgen Receptor (E^−8): 0% |
| CC1(C)CCC2(CCC3C4CCc5c(cc(Cl)c(OS(C)(=O)=O)c5Cl)C4CCC32C)OC1=O (stereo not drawn) [EM-1392-CS] | 0 | 0 |  |
| CC1(C)CC[C@@]2(CCC3C4CCc5cc(F)ccc5C4CC[C@@]32C)OC1=O (stereo partly drawn) [EM-1157-CS] | 0 | 0 |  |
| C[C@]12CCC3c4cc([N+](=O)[O-])c(O)cc4CCC3C1CC[C@@]21CCCC(=O)O1 (stereo partly drawn) [EM-1124, 2-Nitro-1,3,5(10)-estraetriene-3-ol-17(R)-spiro-2′-(6′-oxo)tetrahydropyran] | 7 | 1 |  |
| CC12C=CC(=O)C=C1C=CC1C2CCC2(C)C(=O)C3(CCCCC3)CC12 (stereo not drawn) [CS-204] |  |  | inhibition at 1 µM (E^−6): 5%; inhibition at 0.01 µM (E^−8): 0% |
| CN(C)C(=O)c1ccc2c(c1)CCC1C2CCC2(C)C1CCC21CCC(C)(C)C(=O)O1 (stereo not drawn) [EM-1403] | 0 | 0 |  |
| CC1(C)CC[C@@]2(CCC3C4CCc5cc(C(=O)O)ccc5C4CC[C@@]32C)OC1=O (stereo partly drawn) [EM-1401, 3-Carboxy-1,3,5(10)-estratrien-17(R)-spiro-2′-(5′,5′-dimethyl-6′-oxo)tetrahydropyran] | 0 | 0 |  |
| CC1(C)CC[C@@]2(CCC3C4CCc5cc(C(N)=O)ccc5C4CCC32C)OC1=O (stereo partly drawn) [EM-1404] | 0 | 0 |  |
| CC(=O)O[C@]1(C)C(=O)CCC2C3C=C(C)C4=CC(=O)C=C[C@]4(C)C3CC[C@@]21C (stereo partly drawn) [CS-237] |  |  | inhibition at 1 µM [1]: 11%; inhibition at 0.01 µM [2]: 0% |
| COCCOc1cc2c(cc1C#N)C1CC[C@@]3(C)C(CC[C@@]34CCC(C)(C)C(=O)O4)C1CC2 (stereo partly drawn) [EM-1396] | 2 | 0 |  |
| C[C@]12CCC(=O)C=C1C=C[C@@H]1[C@@H]2CC[C@]2(C)C(=O)C3(CC4CC4C3)C[C@@H]12 (stereo partly drawn) [EM-1299, 4,6-Androstadien-3,17-dione-16-spirobicyclo[3′.1′.0′]-hexane] |  |  | % Inhibition Androgen Receptor E^−6 (E^−6): 3%; % Inhibition Androgen Receptor E^−8 (E^−8): 1% |
| CC1CCC2(CCC3C4CCc5cc(O)c([N+](=O)[O-])cc5C4CCC32C)OC1=O [EM-1131, 2-Nitro-1,3,5(10)-estratrien-3-ol-17(R)-spiro-2′-(5′-methyl-6′-oxo)tetrahydropyran] |  | 2 | % Inhibition Androgen Receptor E^−6 (Table 4′, E^−6): 1% |
| CC1(C)CCC2(CCC3C4CCc5cc(OCCN6CCCCC6)ccc5C4CCC32C)OC1=O [EM-1390-CS, 3-(N-piperidyl-ethyl)-1,3,5(10)-estratrien-17(R)-spiro-2′-(5′,5′-dimethyl-6′-oxo)-tetrahydropyran] | 0 | 0 |  |
| CC1CCC2(CCC3C4CCc5cc(O)c([N+](=O)[O-])cc5C4CCC32C)OC1=O [EM-1126, 2-Nitro-1,3,5(10)-estratrien-3-ol-17(R)-spiro-2′-(5′-methyl-6′-oxo)tetrahydropyran] |  |  | % Inhibition Androgen Receptor E^−6 (Table 4′, E^−6): 10%; % Inhibition Androgen Receptor E^−8 (Table 4′, E^−8): 2% |
| CCC[C@@H]1CC2C3C=CC4=CC(=O)CC[C@]4(C)C3CC[C@]2(C)C1=O (stereo partly drawn) [EM-1097] |  |  | inhibition at 1 µM (E^−6): 5%; inhibition at 0.01 µM (E^−8): 0% |
| COc1ccc2c(c1)C(=O)CC1C3CCC4(CCC(C)(C)C(=O)O4)C3(C)CCC21O (stereo not drawn) [EM-1386] | 0 | 0 |  |
